pIC50: −log10 of the molar value.
Legend:
[1] = biological target: PDE4B (Homo sapiens (Human), UniProt Q07343); assay: PDE4 Inhibition In Vitro Assay (PDE4B); format: biochemical; settings: human recombinant PDE4B; 15 minutes at 30° C.; 2.5% DMSO
Method: PDE4 Inhibition In Vitro Assay
The phosphodiesterase assays are performed essentially according to the method described in Loughney, K., et al., J. Biol. Chem., 271, pp. 796-806 (1996). PDE4A, PDE4B, PDE4C, PDE4D, and PDE5 human recombinant proteins are expressed and purified from Saccharomyes cerevisiae that lack endogenous PDEs. The phosphodiesterase enzymes are diluted on ice with enzyme dilution buffer (25 mM Tris, pH 7.5, 0.1 mM DTT, 5.0 mM MgCl2, 100 mM NaCl, 5 μM ZnSO4, 100 μg/mL BSA) to give approximately 20%-40% hydrolysis of cyclic nucleotide monophosphate (cNMP) in the absence of inhibitor.
The stock solution of test compounds are diluted on the Beckman BioMek™ 1000 workstation to span a concentration range of 4.5 log units in 0.5 log increments. The DMSO concentration in the final test system is 2.5% for all PDE enzymes. The final test compound concentration tested ranged from 0.03 nM to 1 μM.
The assay is performed in a 96-well microtiter plate format on a Beckman BioMek™ 1000 robotic station. Each row of the plate represents a 10-point dose response curve containing blank (no enzyme), non-inhibited control, and inhibitor dilutions spanning 4.5 log units in concentration in 0.5 log increments. Assay stock solutions are loaded into the Biomek™ reservoirs (water, inhibitor diluent [2.5% or 10% DMSO], 5× PDE assay buffer, substrate, inhibitor solutions, enzyme solutions, snake venom nucleotidase, and charcoal suspension). The reaction is initiated with enzyme, and incubated for 15 minutes at 30° C. An excess of Crotalus atrox snake venom nucleotidase (5 μL/well) is then added and the mixture is incubated for an additional 3 minutes. The reaction is terminated by the addition of 200 μL of activated charcoal suspension, after which the plate is centrifuged for 5 minutes at 750×g. A transfer program is run in which 200 μL of supernatant is removed and placed into a new plate. The amount of radioactivity released as phosphate is determined in a Wallac MicroBeta Plate™ counter.
The reduced data at each concentration of inhibitor is analyzed using a four-, three- or two-parameter logistic dose response model to provide an IC50 value.

[2] = test system: chronic cyclophosphamide (CYP)-induced overactive bladder mouse model; assay: Overactive Bladder In Vivo Model; settings: tadalafil 10 mg/kg orally daily; CYP-induced OAB female C57/B16 mice; day 8, 4 hour urine collection
Method: Overactive Bladder In Vivo Model
The in vivo effect of PDE4 inhibitors on OAB is studied with a chronic cyclophosphamide (CYP)-induced overactive bladder mouse model adapted from Boudes et al., Neurourol. Urodynam. 2011. In a typical study, female C57/B16 mice, approximately 20 grams in body weight (Harlan Laboratories, Inc., Indianapolis, Ind.) are used. Mice are randomized by body weight into groups one day before the start of the study. Mice are individually housed and maintained on a 12 hour light/dark cycle at 22° C. with ad lib access to food (TD 2014 with 0.72% Ca and 0.61% P, 990 IU/g D3, Teklad™, Madison, Wis.) and water Animals receive cyclophosphamide (dissolved in physiological saline) i.p. administration at 100 mg/kg on days 1, 3, 5, and 7 to chronically induce OAB. The vehicle control group received daily vehicle (HEC 1%/Tween 80 0.25%/Antifoam 0.05%) administered orally. All other groups are administered orally tadalafil at 10 mg/kg in combination with 0.1, 1.0, or 10.0 mg/kg of test compound daily at a volume of 200 μl/mouse. On day 8, mice are housed in urine collection chambers with a filter paper placed underneath chamber. Prior to urine collection, gavages of 1 ml water are given to each mouse. […] Voiding frequency and volume/void are calculated using Image J software (NIH). Data are statistically analyzed with JMP8® software (Cary, N.C.). […]

PDE4B, sequence (Q07343 whole entry): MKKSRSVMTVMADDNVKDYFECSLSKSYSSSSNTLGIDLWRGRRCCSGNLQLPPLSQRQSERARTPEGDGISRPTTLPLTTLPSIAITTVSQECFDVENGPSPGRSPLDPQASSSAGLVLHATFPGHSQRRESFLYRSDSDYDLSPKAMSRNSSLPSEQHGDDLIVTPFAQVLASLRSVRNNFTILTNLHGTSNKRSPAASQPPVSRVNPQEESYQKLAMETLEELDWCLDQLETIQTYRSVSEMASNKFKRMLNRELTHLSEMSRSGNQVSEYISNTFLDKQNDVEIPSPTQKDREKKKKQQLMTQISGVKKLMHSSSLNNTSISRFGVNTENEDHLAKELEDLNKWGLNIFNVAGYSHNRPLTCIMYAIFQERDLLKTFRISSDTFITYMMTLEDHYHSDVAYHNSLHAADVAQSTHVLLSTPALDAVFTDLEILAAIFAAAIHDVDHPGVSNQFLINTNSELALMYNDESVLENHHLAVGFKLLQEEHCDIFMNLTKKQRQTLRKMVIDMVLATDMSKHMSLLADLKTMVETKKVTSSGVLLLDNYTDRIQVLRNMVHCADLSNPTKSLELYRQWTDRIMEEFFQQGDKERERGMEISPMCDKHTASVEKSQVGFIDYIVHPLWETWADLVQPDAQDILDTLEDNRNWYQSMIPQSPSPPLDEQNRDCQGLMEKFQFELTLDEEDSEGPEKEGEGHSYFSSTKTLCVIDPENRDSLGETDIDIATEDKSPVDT

Structure (SMILES) | pIC50 [1] | urinary frequency [2] | volume per void [2]
COc1ccc([C@@H]2CN(C(=O)[C@@H](O)CO)C[C@@]2(C)[C@@H](C)O)cc1OC1CN(c2cccnc2)C1 [Example 2, (2S)-3-[(3S,4S)-3-[(1R)-1-hydroxyethyl]-4-{4-methoxy-3-[(1-pyridin-3-ylazetidin-3-yl)oxy]phenyl}-3-methylpyrrolidin-1-yl]-3-oxopropane-1,2-diol] | 8.74 | – | –
COc1ccc([C@@H]2CN(C(=O)[C@@H](O)CO)C[C@@]2(C)[C@@H](C)O)cc1OC1CN(c2ccncc2)C1 [Example 3, (2S)-3-[(3S,4S)-3-[(1R)-1-hydroxyethyl]-4-{4-methoxy-3-[(1-pyridin-4-ylazetidin-3-yl)oxy]phenyl}-3-methylpyrrolidin-1-yl]-3-oxopropane-1,2-diol] | 8.11 | – | –
COc1ccc([C@@H]2CN(C(=O)[C@@H](O)CO)C[C@@]2(C)[C@@H](C)O)cc1OC1CN(c2ncccn2)C1 [Example 5, (2S)-3-[(3S,4S)-3-[(1R)-1-hydroxyethyl]-4-{4-methoxy-3-[(1-pyrimidin-2-ylazetidin-3-yl)oxy]phenyl}-3-methylpyrroldiin-1-yl]-3-oxopropane-1,2-diol] | 8.82 | – | –
COc1ccc([C@@H]2CN(C(=O)[C@@H](O)CO)C[C@@]2(C)[C@@H](C)O)cc1OC1CN(c2ccc(C#N)cn2)C1 [Example 6, (2S)-3-[(3S,4S)-3-[(1R)-1-hydroxyethyl]-4-(4-methoxy-3-{[1-(5-cyanopyridin-2-yl)azetidin-3-yl]oxy}phenyl)-3-methylpyrrolidin-1-yl]-3-oxopropane-1,2-diol] | 9.51 | – | –
COc1ccc([C@@H]2CN(C(=O)[C@@H](O)CO)C[C@@]2(C)[C@@H](C)O)cc1OC1CN(c2cc(C#N)ccn2)C1 [Example 7, (2S)-3-[(3S,4S)-3-[(1R)-1-hydroxyethyl]-4-(4-methoxy-3-{[1-(4-cyanopyridin-2-yl)azetidin-3-yl]oxy}phenyl)-3-methylpyrrolidin-1-yl]-3-oxopropane-1,2-diol] | 9.36 | – | –
COc1ccc([C@@H]2CN(C(=O)[C@@H](O)CO)C[C@@]2(C)[C@@H](C)O)cc1OC1CN(c2cc(Cl)ncn2)C1 [Example 8, (2S)-3-[(3S,4)S-3-[(1R)-1-hydroxyethyl]-4-{4-methoxy-3-[(1-(6-chloropyrimidin-4-yl)azetidin-3-yl)oxy]phenyl}-3-methylpyrrolidin-1-yl]-3-oxopropane-1,2-diol] | 9.28 | – | –
COc1ccc([C@@H]2CN(C(=O)[C@@H](O)CO)C[C@@]2(C)[C@@H](C)O)cc1OC1CN(c2ccc(Cl)cn2)C1 [Example 12, (2S)-3-[(3S,4S)-3-[(1R)-1-hdyroxyethyl]-4-(4-methoxy-3-{[1-(5-chloropyridin-2-yl)azetidin-3-yl]oxy}phenyl)-3-methylpyrrolidin-1-yl]-3-oxopropane-1,2-diol] | 9.80 | – | –
COc1ccc([C@@H]2CN(C(=O)[C@@H](O)CO)C[C@@]2(C)[C@@H](C)O)cc1OC1CN(c2ccncn2)C1 [Example 13, (2S)-3-[(3S,4S)-3-[(1R)-1-hydroxyethyl]-4-(4-methoxy-3-{[1-(pyrimidin-4-yl)azetidin-3-yl]oxy}phenyl)-3-methylpyrrolidin-1-yl]-3-oxopropane-1,2-diol] | 8.42 | – | –
[2H]C([2H])([2H])c1ccc(N2CC(Oc3cc([C@@H]4CN(C(=O)[C@@H](O)CO)C[C@@]4(C)[C@@H](C)O)ccc3OC)C2)nc1 [Example 14, (S)-2,3-dihydroxy-1-((3S,4S)-3-((R)-1-hydroxyethyl)-4-(4-methoxy-3-((1-(5-(methyl-D3)pyridin-2-yl)azetidin-3-yl)oxy)phenyl)-3-methylpyrrolidin-1-yl)propan-1-one] | 9.89 | – | –
CN1CC(=O)N2[C@H](c3ccc4c(c3)OCO4)c3[nH]c4ccccc4c3C[C@@H]2C1=O [tadalafil] | – | no significant activity | no significant activity
